Measured values taken from ChEMBL document CHEMBL1125008 (J Med Chem, 1990).

Legend:
[1] = molecular target: T1, Serotonin 3 receptor (5HT3) (Mus musculus) (UniProt Q9JHJ5+P23979); test: (§1) The binding affinity was measured for 5-hydroxytryptamine 3 receptor on NG 108-15 cell line of mouse neuroblastoma-glioma cells in presence of [3H]5 radioligand (in vitro); assay type: cell-based; conditions: concentration not given here
[2] = molecular target: T2, Serotonin 3 receptor (5HT3) (Mus musculus, UniProt Q9JHJ5+P23979); test: as §1; assay type: cell-based
T2 sequence (Q9JHJ5 whole entry): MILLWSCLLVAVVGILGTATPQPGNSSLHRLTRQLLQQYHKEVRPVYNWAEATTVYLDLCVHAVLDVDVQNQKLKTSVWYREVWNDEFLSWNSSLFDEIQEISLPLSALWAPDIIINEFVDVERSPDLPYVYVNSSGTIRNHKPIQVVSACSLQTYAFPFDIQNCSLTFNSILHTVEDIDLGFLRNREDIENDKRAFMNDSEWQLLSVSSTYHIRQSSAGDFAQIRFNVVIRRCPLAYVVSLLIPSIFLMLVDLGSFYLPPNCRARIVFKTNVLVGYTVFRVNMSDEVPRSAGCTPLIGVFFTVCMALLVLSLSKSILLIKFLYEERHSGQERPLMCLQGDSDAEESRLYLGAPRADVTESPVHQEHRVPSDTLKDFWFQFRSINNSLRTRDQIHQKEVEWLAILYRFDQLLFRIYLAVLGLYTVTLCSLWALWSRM
T2 sequence (P23979 whole entry): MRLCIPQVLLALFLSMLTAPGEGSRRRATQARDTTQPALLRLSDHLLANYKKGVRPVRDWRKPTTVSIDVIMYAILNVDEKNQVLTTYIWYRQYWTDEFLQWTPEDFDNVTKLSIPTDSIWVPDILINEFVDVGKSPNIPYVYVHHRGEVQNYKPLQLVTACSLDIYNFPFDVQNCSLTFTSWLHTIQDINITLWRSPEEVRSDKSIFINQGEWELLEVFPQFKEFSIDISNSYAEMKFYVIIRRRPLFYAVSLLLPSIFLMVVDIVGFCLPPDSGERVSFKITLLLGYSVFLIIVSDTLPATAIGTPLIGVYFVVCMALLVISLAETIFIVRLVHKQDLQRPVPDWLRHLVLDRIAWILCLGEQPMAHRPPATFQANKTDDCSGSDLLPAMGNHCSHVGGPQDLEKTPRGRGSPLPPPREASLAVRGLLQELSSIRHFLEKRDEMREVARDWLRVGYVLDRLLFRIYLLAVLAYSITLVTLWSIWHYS

[3] = molecular target: T1, Serotonin 3 receptor (5HT3) (Mus musculus); test: Percent inhibition of [3H]5 binding to 5-hydroxytryptamine 3 receptor was evaluated by injection of compound (75 microCi/kg, […]) into the tail vein of mice (in vivo); assay type: organism-based

SMILES | inhibition [1] | Ki [2] | other results
Cc1[nH]cnc1Cc1nc(-c2ccccc2)cs1 | 53% | – | –
CN1[C@@H]2CC[C@H]1C[C@@H](OC(=O)c1c[nH]c3ccccc13)C2 [TROPISETRON] | – | 3.8 nM | –
Cc1[nH]c2ccc(O)cc2c1CCN | – | 1430 nM | –
c1ccc2nc(N3CCNCC3)ccc2c1 [QUIPAZINE] | – | 8.67 nM | –
Cc1[nH]cnc1Cc1nc(-c2cccc3cccnc23)cs1 | – | – | inhibition [3]: 54%
Cc1nccn1CC1CCc2c(c3ccccc3n2C)C1=O (stereo not drawn) [ONDANSETRON] | – | 12 nM | –
COc1ccccc1-c1csc(Cc2[nH]cnc2C)n1 | 50% | – | –
Cc1[nH]cnc1Cc1nc(-c2ccccc2F)cs1 | 66% | – | –
